pKi: −log10 of the molar value. Read-outs that look alike come from different tables or passages of the source. One block for each compound: values may come before it.
How the values were obtained:
[1] = system: White male CD 1 (Charles River) mice; assay: Nootropic activity: "Passive avoidance" test (amnesia induced by scopolamine); format: in vivo; conditions: scopolamine 2 mg/kg i.p.
[2] = system: Male white CD 1 (Charles River) mice; assay: Antidepressant activity: antagonism to reserpine (hypothermia induced by reserpine); format: in vivo; conditions: 4 h after reserpine 2.5 mg/kg i.p.
Method: Male white CD 1 (Charles River) mices weighing 23-35 g were used. Before every test, the basal rectal temperature of every mouse is registered. […] The rectal temperature is measured again at t=O and 30', 60', 90' and 120' after administration of the drug.

[3] = system: White male CD 1 (Charles River) mice; assay: Antidepressant activity: "Behavioral despair" test (Porsolt); format: in vivo; conditions: relative to control group
Method: The test described in R. D. Porsolt et al., Arch.Int.Pharmacodyn. 229, 327 (1977), which allows the antidepressant activity of a drug to be evaluated on an animal placed in an unusual, stress-causing environment, such as the water environment, was carried out. White male CD 1 (Charles River) mice weighing 24-35 g were used.
1 h before the immersion in water, the animal is administered the test compound by the intraperitoneal (i.p.) route. […] As the reference substances the xanthines theophylline and caffeine, the nootropically acting drug oxiracetam and the tricyclic antidepressant desipramine were included.

[4] = system: Male Wistar (Charles River) rats; assay: Locomotor activity: "Activity cage" test; format: in vivo; conditions: Rattus norvegicus, ip, read-out: DE50 (ED50 for % increase of spontaneous motion activity)
Text: This test allows the spontaneous locomotor activity of the animal to be studied. Male Wistar (Charles River) rats weighing 150-250 g were used. […] The printer connected to the system records the number of movements performed by the rats within the first 5' from the moment they enter the cage.

adenosine A1 receptors = target: T1, adenosine A1 receptors (Rattus norvegicus, UniProt P25099); assay: Binding to the adenosine A1 receptors, (3H)-DPCPX displacement, synaptosomal membranes from rat brain; conditions: for pKi: rat brain synaptosomal membranes, 0.3 nM (3H)-DPCPX, 1 h at 25° C., pH 7.4, Ki from IC50 via Cheng-Prusoff
T1 construct: preparations of sinaptosomial membranes from rat brain; from tissue; host or cells: rat brain synaptosomal membranes
T1 sequence (P25099 1-326): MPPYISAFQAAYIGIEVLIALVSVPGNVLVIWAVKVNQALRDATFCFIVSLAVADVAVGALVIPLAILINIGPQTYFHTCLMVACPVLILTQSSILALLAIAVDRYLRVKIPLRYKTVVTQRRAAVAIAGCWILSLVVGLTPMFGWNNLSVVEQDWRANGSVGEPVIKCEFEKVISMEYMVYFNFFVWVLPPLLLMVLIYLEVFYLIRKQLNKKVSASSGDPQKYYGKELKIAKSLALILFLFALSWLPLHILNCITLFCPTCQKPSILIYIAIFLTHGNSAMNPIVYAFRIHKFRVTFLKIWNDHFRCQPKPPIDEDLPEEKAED
Method: The receptor binding tests were carried out on preparations of sinaptosomial membranes from rat brain. Binding to the A1 receptors has been carried out as follows: 200 μg of membrane proteins were incubated for 1 h at 25° C. with the test substance and 0.3 nM (3H)-DPCPX in 400 μl of 50 mM tris-HCl pH=7.4. The non-specific binding was determined with 20 μM R-PIA. The binding to the A2 receptors was carried out by incubating 200 μg of membrane proteins for 1 h at 25° C. with the test substance, 4 nM (3H)-NECA and 50 nM CPA. The non-specific binding was determined with 200 μM CPA. The incubations were blocked by centrifugal methods and the separation of the bound from free material was carried out, followed by determination of the contained radioactivity by liquid scintillation. The dosis-inhibition curves were obtained by assaying the receptor displacement at 14 different concentrations of the test substance (all the tests are carried out in triplicate). The tested substances were dissolved into dimethylsulfoxide and diluted in 50 mM Tris-HCl, buffer pH=7.4. The IC50 values were determined by means of non-linear regression curves and transformed into Ki values according to the Cheng-Prusoff equation.

adenosine A2 receptors = target: T2, adenosine A2 receptors (Rattus norvegicus, UniProt P30543); assay: Binding to the adenosine A2 receptors, (3H)-NECA + 50 nM CPA, synaptosomal membranes from rat brain; conditions: 4 nM (3H)-NECA and 50 nM CPA, 1 h at 25° C., Ki from IC50 via Cheng-Prusoff
T2 construct: preparations of sinaptosomial membranes from rat brain; from tissue; host or cells: rat brain synaptosomal membranes
Method: The receptor binding tests were carried out on preparations of sinaptosomial membranes from rat brain.
200 μg of membrane proteins were incubated for 1 h at 25° C. with the test substance and 0.3 nM (3H)-DPCPX in 400 μl of 50 mM tris-HCl pH=7.4. The non-specific binding was determined with 20 μM R-PIA. The binding to the A2 receptors was carried out by incubating 200 μg of membrane proteins for 1 h at 25° C. with the test substance, 4 nM (3H)-NECA and 50 nM CPA. The non-specific binding was determined with 200 μM CPA.
The incubations were blocked by centrifugal methods and the separation of the bound from free material was carried out, followed by determination of the contained radioactivity by liquid scintillation. The dosis-inhibition curves were obtained by assaying the receptor displacement at 14 different concentrations of the test substance (all the tests are carried out in triplicate). The tested substances were dissolved into dimethylsulfoxide and diluted in 50 mM Tris-HCl, buffer pH=7.4. The IC50 values were determined by means of non-linear regression curves and transformed into Ki values according to the Cheng-Prusoff equation.

[5] = dose 10 (unit not given), i.p. 1 h before acquisition trial
[6] = 30' before activity cage, movements within first 5', relative to control group
[7] = 10 mg/kg i.p., 1 h before immersion

T2 sequence (P30543 whole entry): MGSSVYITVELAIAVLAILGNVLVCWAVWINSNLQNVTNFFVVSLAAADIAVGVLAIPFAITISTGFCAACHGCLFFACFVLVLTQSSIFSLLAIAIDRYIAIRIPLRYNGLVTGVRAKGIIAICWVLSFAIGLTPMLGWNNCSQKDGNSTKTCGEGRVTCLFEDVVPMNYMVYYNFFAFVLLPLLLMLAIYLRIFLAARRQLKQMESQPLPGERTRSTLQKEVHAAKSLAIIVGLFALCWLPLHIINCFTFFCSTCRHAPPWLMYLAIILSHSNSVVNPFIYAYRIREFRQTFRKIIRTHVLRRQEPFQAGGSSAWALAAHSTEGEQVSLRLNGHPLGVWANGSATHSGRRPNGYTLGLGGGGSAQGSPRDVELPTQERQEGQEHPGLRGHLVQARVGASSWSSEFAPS

SMILES: CNCCCN1c2ccccc2CCc2ccccc21 [DESIPRAMINE]
ANTIAMNESIC ACTIVITY (percentage of animals that do not trespass the door) ([1]; dose 45 (unit not given), i.p. 1 h before acquisition trial): 30%
Δ TEMPERATURE (maximum temperature variation relative to t=0) ([2]; 16 mg/kg i.p.): +1.39 °C
% VARIATION OF MOTIONLESSNESS TIME LENGTH ([3]; 15 mg/kg i.p.): -24.50%

SMILES: Cn1c(=O)c2c(ncn2C)n(C)c1=O [CAFFEINE]
ANTIAMNESIC ACTIVITY (percentage of animals that do not trespass the door) [1, 5]: 60%
ED50 [4]: 4.33 mg/kg
Δ TEMPERATURE (maximum temperature variation relative to t=0) ([2]; 20 mg/kg i.p.): +1.63 °C
% VARIATION OF MOTI[…] LENGTH ([3]; 25 mg/kg (os)): -30.34%

SMILES: CNCCC=C1c2ccccc2CCc2ccccc21 [NORTRIPTYLINE]
Δ TEMPERATURE (maximum temperature variation relative to t=0) ([2]; 10 mg/kg i.p.): +2.34 °C

SMILES: NC(=O)CN1CC(O)CC1=O (stereo not drawn) [OXIRACETAM]
ANTIAMNESIC ACTIVITY (percentage of animals that do not trespass the door) ([1]; dose 1000 (os) (unit not given)): 40%
% VARIATION OF MOTIONLESSNESS TIME LENGTH ([3]; 500 mg/kg i.p.): -29.07%

pKi (adenosine A1 receptors): 7.59
SELECTIVITY (A2/A1) (adenosine A1 receptors; ratio of Ki,A2 to Ki,A1): 2100
pKi (adenosine A2 receptors): 4.26
SMILES: CCCn1c(=O)c2[nH]c(C3(N)CCCC3)nc2n(CCC)c1=O [COMPOUND EX. 1, 8-(1-aminocyclopentyl)-1,3-dipropylxanthine]
ANTIAMNESIC ACTIVITY (percentage of animals that do not trespass the door) [1, 5]: 80%
ED50 [4, 6]: 0.492 mg/kg
Δ TEMPERATURE (maximum temperature variation relative to t=0) ([2]; 10 mg/kg i.p.): +0.26 °C
Δ TEMPERATURE (maximum temperature variation relative to t=0) ([2]; 20 mg/kg i.p.): +0.71 °C
% VARIATION OF MOTIONLESSNESS TIME LENGTH [3, 7]: -28.33%
% VARIATION OF MOTIONLESSNESS TIME LENGTH ([3]; 20 mg/kg i.p., 1 h before immersion): -42.93%

SMILES: Cn1c(=O)c2[nH]c(-c3ccccc3)nc2n(C)c1=O [8-PHENYLTHEOPHYLINE]
ANTIAMNESIC ACTIVITY (percentage of animals that do not trespass the door) [1, 5]: 40%
ED50 [4, 6]: 6.01 mg/kg

pKi (adenosine A1 receptors): 6.78
SMILES: CCCn1c(=O)c2[nH]c(C3(NS(C)(=O)=O)CCCC3)nc2n(CCC)c1=O [COMPOUND EX. 8, 1,3-dipropyl-8-(1-methanesulfonylaminocyclopenthyl)xanthine]

pKi (adenosine A1 receptors): 6.94
SMILES: CCCn1c(=O)c2[nH]c(C3(NC(=O)c4ccccc4)CCCC3)nc2n(CCC)c1=O [COMPOUND EX. 6, 8-(1-benzoylaminocyclopentyl)-1,3-dipropylxanthine]
% VARIATION OF MOTIONLESSNESS TIME LENGTH [3, 7]: -24.22%

pKi (adenosine A1 receptors): 6.97
SMILES: CCCn1c(=O)c2[nH]c(C3(NC(=O)OCC)CCCC3)nc2n(CCC)c1=O [COMPOUND EX. 10, 1,3-dipropyl-8-(1(N-ethoxycarbonylamino)cyclopentyl)xanthine]

SMILES: Cn1c(=O)c2[nH]cnc2n(C)c1=O [THEOPHYLLINE, 1,3-dimethylxanthine]
ANTIAMNESIC ACTIVITY (percentage of animals that do not trespass the door) ([1]; dose 20 (unit not given), i.p. 1 h before acquisition trial): 30%
ED50 [4]: ~3.75 mg/kg
Δ TEMPERATURE (maximum temperature variation relative to t=0) ([2]; 20 mg/kg i.p.): +0.81 °C
% VARIATION OF MOTI[…] LENGTH ([3]; 18.7 mg/kg (os)): -48.88%

pKi (adenosine A1 receptors): 5.16
SMILES: CCCn1c(=O)c2[nH]c(C3(NC(=O)CC(=O)O)CCCC3)nc2n(CCC)c1=O [COMPOUND EX. 12, 1,3-dipropyl-8-(1-emimalonamidocyclopentyl)xanthine]

— US5378844A, “8-(1-aminocycloalkyl)-1,3-dialkylxanthine derivatives, preparation process and antidepressant, nootropic and psychostimulant composition thereoff” (Biomedica Foscama Industria Chimico-Farmaceutica S.p.A., priority 1992, dated 1995)
